The values that follow come from patent US9242966B2, “Phthalazines as potassium ion channel inhibitors” (BRISTOL-MYERS SQUIBB COMPANY, priority 2013, dated 2016).

The target in the assay is T1, human KV 1.5 (Homo sapiens, UniProt P22460).
T1 construct: expressed in transfected cells; host or cells: mammalian L-929 cells (mouse fibroblast line)
T1 sequence (P22460 whole entry): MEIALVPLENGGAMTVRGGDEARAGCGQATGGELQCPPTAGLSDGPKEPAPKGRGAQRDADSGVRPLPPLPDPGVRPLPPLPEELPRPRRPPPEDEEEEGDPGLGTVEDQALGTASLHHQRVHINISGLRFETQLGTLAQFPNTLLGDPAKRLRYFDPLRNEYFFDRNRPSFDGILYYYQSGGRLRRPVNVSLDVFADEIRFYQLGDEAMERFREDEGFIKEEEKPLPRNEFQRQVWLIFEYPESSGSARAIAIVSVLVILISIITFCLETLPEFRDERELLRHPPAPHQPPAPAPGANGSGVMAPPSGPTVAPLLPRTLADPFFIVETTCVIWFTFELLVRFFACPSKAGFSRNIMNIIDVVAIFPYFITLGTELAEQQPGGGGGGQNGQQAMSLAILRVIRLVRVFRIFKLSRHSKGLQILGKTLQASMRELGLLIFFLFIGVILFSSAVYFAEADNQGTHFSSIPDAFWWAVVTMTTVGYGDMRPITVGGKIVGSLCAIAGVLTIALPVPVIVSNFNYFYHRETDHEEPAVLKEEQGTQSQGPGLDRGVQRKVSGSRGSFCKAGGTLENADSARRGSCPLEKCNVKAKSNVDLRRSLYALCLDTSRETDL
The assay is described as follows: Block of IKur current in patch clamped L-929 cells expressing human Kv1.5. It counts as cell-based. As to conditions: L929, 0.3 μM; patch clamped mammalian L-929 cells stably expressing human Kv1.5 (IKur); read-out: KV1_5% Inh L929 @0.3 μM. The text has this: 1. Synders, D. J.; et al., “A rapidly activating and slowly inactivating potassium channel cloned from human heart: functional analysis after stable mammalian cell culture expression”, J. Gen. Physiol., 101:513-543 (1993). […]
On to `OCC(O)c1cncc(-c2nnc(NCc3ccccn3)c3c(-c4ccccc4)cccc23)c1` (racemic) [Example 7, 1-(5-(5-Phenyl-4-(pyridin-2-ylmethylamino)phthalazin-1-yl)pyridin-3-yl)ethane-1,2-diol], for which the inhibition at 0.3 µM amounted to 16%. The result for `NS(=O)(=O)c1cncc(-c2nnc(NCc3ccccn3)c3c(-c4ccccc4)cccc23)c1` [Example 1, 5-(5-Phenyl-4-(pyridin-2-ylmethylamino)phthalazin-1-yl)pyridine-3-sulfonamide] reads 79.5%. The result for `CC(=O)Nc1cncc(-c2nnc(NCc3ccccc3)c3c(-c4ccccc4)cccc23)c1` [Example 2, N-(5-(4-(Benzylamino)-5-phenylphthalazin-1-yl)pyridin-3-yl)acetamide] reads 83.9%. `CS(=O)(=O)Nc1cncc(-c2nnc(NCc3ccccc3)c3c(-c4ccccc4)cccc23)c1` [Example 3, N-(5-(4-(Benzylamino)-5-phenylphthalazin-1-yl)pyridin-3-yl)methanesulfonamide]: the inhibition at 0.3 µM was found to be 77.3%. Under `CC(C)OC(=O)Nc1cncc(-c2nnc(NCc3ccccc3)c3c(-c4ccccc4)cccc23)c1` [Example 4] stands 95.4%; under `NC(=O)c1cncc(-c2nnc(NCc3ccccn3)c3c(-c4ccccc4)cccc23)c1` [Example 5, 5-(5-Phenyl-4-(pyridin-2-ylmethylamino)phthalazin-1-yl)nicotinamide], 76%. The result for `O=C(NCC(O)CO)c1cncc(-c2nnc(NCc3ccccn3)c3c(-c4ccccc4)cccc23)c1` (stereo not shown) [Example 6, N-(2,3-Dihydroxypropyl)-5-(5-phenyl-4-(pyridin-2-ylmethylamino)phthalazin-1-yl)nicotinamide] reads 38.3%.

For the compound `NS(=O)(=O)c1cncc(-c2nnc(NCc3ccccc3)c3c(-c4ccccc4)cccc23)c1` [Example 8, 5-(4-(Benzylamino)-5-phenylphthalazin-1-yl)pyridine-3-sulfonamide], the inhibition at 0.3 µM came to 90.5%. `Nc1cncc(-c2nnc(NCc3ccccn3)c3c(-c4ccccc4)cccc23)c1` [Example 9, 4-(5-Aminopyridin-3-yl)-8-phenyl-N-(pyridin-2-ylmethyl) phthalazin-1-amine]: the inhibition at 0.3 µM was determined as 87.1%. The result for `NC(=O)Nc1cncc(-c2nnc(NCc3ccccc3)c3c(-c4ccccc4)cccc23)c1` [Example 10, 1-(5-(4-(Benzylamino)-5-phenylphthalazin-1-yl)pyridin-3-yl)urea] reads 51.1%. For `CC(=O)Nc1cncc(-c2nnc(NCc3ccccn3)c3c(-c4ccccc4)cccc23)c1` [Example 11, N-(5-(5-Phenyl-4-(pyridin-2-ylmethylamino)phthalazin-1-yl)pyridin-3-yl)acetamide], the inhibition at 0.3 µM stood at 78.8%. Under `CC(C)OC(=O)Nc1cncc(-c2nnc(NCc3ccccn3)c3c(-c4ccccc4)cccc23)c1` [Example 12, Isopropyl 5-(5-phenyl-4-(pyridin-2-ylmethylamino)phthalazin-1-yl)pyridin-3-ylcarbamate] stands 91.6%. For `CC(C)(C)Oc1cc(-c2nnc(NCc3ccccc3)c3c(-c4ccccc4)cccc23)ccn1` [Example 13, N-Benzyl-4-(2-tert-butoxypyridin-4-yl)-8-phenylphthalazin-1-amine], the inhibition at 0.3 µM is 43%. Take `CS(=O)(=O)Nc1cccc(NC(=O)c2cncc(-c3nnc(NCc4ccccn4)c4c(-c5ccccc5)cccc34)c2)c1` [Example 14, N-(3-(Methylsulfonamido)phenyl)-5-(5-phenyl-4-(pyridin-2-ylmethylamino)phthalazin-1-yl)nicotinamide]: the inhibition at 0.3 µM worked out at 71%. On to `COc1ccccc1CNc1nnc(-c2cncc(S(N)(=O)=O)c2)c2cccc(-c3ccccc3)c12` [Example 19, 5-(4-((2-Methoxy-benzyl)amino)-5-phenylphthalazin-1-yl)pyridine-3-sulfonamide], for which the inhibition at 0.3 µM amounted to 72.5%. The result for `Nc1ccc(-c2nnc(NCc3ccccc3)c3c(-c4ccccc4)cccc23)cn1` [Example 20, 4-(6-Aminopyridin-3-yl)-N-benzyl-8-phenylphthalazin-1-amine] reads 92.8%; that for `CC(=O)Nc1ccc(-c2nnc(NCc3ccccc3)c3c(-c4ccccc4)cccc23)cn1` [Example 21, N-(5-(4-(Benzyl-amino)-5-phenylphthalazin-1-yl)pyridin-2-yl)acetamide], 97.9%. Take `CC(C)CC(=O)Nc1cncc(-c2nnc(NCc3ccccc3)c3c(-c4ccccc4)cccc23)c1` [Example 22, N-(5-(4-(Benzyl-amino)-5-phenylphthalazin-1-yl)pyridin-3-yl)-3-methylbutanamide]: the inhibition at 0.3 µM is 91.5%. The result for `NC(=O)c1cncc(-c2nnc(NCc3ccccc3)c3c(-c4ccccc4)cccc23)c1` [Example 23, 5-(4-(Benzyl-amino)-5-phenylphthalazin-1-yl)nicotinamide] reads 83.5%; that for `CCOC(=O)c1cncc(-c2nnc(NCc3ccccc3)c3c(-c4ccccc4)cccc23)c1` [Example 24, Ethyl 5-(4-(benzyl-amino)-5-phenylphthalazin-1-yl) nicotinate], 96.5%.

As for `Oc1cc(-c2nnc(NCc3ccccc3)c3c(-c4ccccc4)cccc23)ccn1` [Example 25, 4-(4-(Benzyl-amino)-5-phenylphthalazin-1-yl)pyridin-2-ol], the inhibition at 0.3 µM was found to be 80.2%. Under `COc1ncc(-c2nnc(NCc3ccccc3)c3c(-c4ccccc4)cccc23)cn1` [Example 26, N-Benzyl-4-(2-methoxy-pyrimidin-5-yl)-8-phenylphthalazin-1-amine] stands 93.1%; under `O=C(Nc1cncc(-c2nnc(NCc3ccccc3)c3c(-c4ccccc4)cccc23)c1)OCC(F)(F)F` [Example 27, 2,2,2-Trifluoroethyl (5-(4-(benzylamino)-5-phenylphthalazin-1-yl)pyridin-3-yl)carbamate], 78%; under `NS(=O)(=O)c1cncc(-c2nnc(NCc3ccccc3)c3c(-c4ccc(F)cc4)cccc23)c1` [Example 28, 5-(4-(Benzylamino)-5-(4-fluorophenyl)phthalazin-1-yl)pyridine-3-sulfonamide], 41.5%. As for `NS(=O)(=O)c1cncc(-c2nnc(NCc3ncccn3)c3c(-c4ccccc4)cccc23)c1` [Example 29, 5-(5-Phenyl-4-((pyrimidin-2-ylmethyl)amino)phthalazin-1-yl)pyridine-3-sulfonamide], the inhibition at 0.3 µM came out at 68.1%. Under `CC(C)CC(=O)Nc1cncc(-c2nnc(NCc3ccccn3)c3c(-c4ccccc4)cccc23)c1` [Example 30, 3-Methyl-N-(5-(5-phenyl-4-((pyridin-2-ylmethyl)amino)phthalazin-1-yl)pyridin-3-yl)butanamide] stands 92.5%. The result for `NS(=O)(=O)c1cncc(-c2nnc(NCc3ccccc3F)c3c(-c4ccccc4)cccc23)c1` [Example 31, 5-(4-((2-Fluorobenzyl)amino)-5-phenylphthalazin-1-yl)pyridine-3-sulfonamide] reads 87.4%; that for `NS(=O)(=O)c1cncc(-c2nnc(NCc3cccc(F)c3)c3c(-c4ccccc4)cccc23)c1` [Example 32, 5-(4-((3-Fluorobenzyl)amino)-5-phenylphthalazin-1-yl)pyridine-3-sulfonamide], 53.2%.
